The assay has as its target Histone acetyltransferase KAT6A (Homo sapiens, UniProt Q92794). Kind of assay: Inhibition of KAT6A (unknown origin).

Structures are written as SMILES.

Chain of Histone acetyltransferase KAT6A (Q92794 whole entry): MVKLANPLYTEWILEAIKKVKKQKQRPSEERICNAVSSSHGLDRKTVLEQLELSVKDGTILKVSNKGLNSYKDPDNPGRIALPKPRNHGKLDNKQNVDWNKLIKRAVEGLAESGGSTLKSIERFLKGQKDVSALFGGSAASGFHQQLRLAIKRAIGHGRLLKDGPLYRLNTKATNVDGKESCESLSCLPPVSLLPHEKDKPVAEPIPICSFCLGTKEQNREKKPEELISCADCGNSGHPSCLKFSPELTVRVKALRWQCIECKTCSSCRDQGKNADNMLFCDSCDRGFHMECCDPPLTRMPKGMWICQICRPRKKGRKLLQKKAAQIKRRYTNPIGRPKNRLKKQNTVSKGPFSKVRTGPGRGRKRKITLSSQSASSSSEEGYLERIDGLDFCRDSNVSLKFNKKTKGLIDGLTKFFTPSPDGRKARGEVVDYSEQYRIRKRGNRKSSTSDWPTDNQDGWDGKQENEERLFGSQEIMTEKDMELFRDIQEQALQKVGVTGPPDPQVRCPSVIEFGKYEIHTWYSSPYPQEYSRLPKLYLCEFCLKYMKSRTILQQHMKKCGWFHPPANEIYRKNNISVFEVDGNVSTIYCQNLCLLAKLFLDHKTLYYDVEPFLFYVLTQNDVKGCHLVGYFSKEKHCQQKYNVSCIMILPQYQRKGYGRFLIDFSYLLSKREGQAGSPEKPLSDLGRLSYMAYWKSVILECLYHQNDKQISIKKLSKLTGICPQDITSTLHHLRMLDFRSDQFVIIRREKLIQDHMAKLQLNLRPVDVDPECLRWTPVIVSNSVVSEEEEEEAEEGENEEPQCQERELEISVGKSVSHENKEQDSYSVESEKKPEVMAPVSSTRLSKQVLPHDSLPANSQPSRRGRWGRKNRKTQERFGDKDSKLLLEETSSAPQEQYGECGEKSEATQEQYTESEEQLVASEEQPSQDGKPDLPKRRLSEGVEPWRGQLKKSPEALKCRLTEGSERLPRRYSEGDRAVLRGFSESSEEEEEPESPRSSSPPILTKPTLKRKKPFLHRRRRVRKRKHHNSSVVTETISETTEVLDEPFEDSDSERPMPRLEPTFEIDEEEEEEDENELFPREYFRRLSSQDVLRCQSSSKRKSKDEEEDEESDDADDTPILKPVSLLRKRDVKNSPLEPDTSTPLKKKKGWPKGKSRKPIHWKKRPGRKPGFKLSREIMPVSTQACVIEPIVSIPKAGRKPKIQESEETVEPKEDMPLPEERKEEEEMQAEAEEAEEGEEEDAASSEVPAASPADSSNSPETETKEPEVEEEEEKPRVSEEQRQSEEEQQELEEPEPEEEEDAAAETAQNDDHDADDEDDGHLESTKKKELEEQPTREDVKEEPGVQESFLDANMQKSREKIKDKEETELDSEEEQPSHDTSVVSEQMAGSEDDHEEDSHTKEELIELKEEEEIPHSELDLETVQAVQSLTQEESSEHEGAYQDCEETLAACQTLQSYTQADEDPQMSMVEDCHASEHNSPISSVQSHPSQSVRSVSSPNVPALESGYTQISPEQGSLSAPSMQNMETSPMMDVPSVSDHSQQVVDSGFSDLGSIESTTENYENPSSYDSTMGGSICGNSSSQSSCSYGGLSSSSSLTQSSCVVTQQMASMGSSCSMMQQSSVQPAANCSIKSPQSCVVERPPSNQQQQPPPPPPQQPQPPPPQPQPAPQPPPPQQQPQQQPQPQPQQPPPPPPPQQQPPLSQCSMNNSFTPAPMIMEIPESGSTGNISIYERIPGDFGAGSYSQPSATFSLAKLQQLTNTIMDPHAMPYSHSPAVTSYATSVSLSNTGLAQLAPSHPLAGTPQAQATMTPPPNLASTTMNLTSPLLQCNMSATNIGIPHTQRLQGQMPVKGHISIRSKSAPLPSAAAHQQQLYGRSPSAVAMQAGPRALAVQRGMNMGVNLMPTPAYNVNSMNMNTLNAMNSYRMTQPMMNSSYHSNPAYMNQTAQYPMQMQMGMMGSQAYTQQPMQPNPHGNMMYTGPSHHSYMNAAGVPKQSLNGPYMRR

As usually defined, the IC50 is the midpoint of a concentration-inhibition curve. The low end stands for higher potency, the high end for lower potency. The molecule `COc1ccc(C2=CCN(C)CC2)cc1-n1cc(NS(=O)(=O)c2ccccc2)nn1` displayed an IC50 greater than 100 µM.

Values taken from ChEMBL document CHEMBL6083201, “Identification of triazolyl KAT6 inhibitors via a templated fragment approach” (Bioorg Med Chem Lett, 2024).
